Test results reported in patent US20150284360A1, “AMIDE DERIVATIVES OF ANILINE-RELATED COMPOUNDS AND COMPOSITIONS THEREOF” (C&C BIOPHARMA, LLC, priority 2014, published 2015).

Key:
[1] = Solubility of a compound in water; format: physicochemical; details: compound added until saturated
Protocol: Solubility of a compound was obtained by adding the compound into water of known volume (e.g. 1 mL) until saturated, measuring the amount of the compound added, and obtaining the solubility of the compound in water (mg/mL) (Table 9).

[2] = In vitro conversion of prodrug Lys-CC30.2HCl to parent drug CC30 in rat plasma (HPLC-MS); format: in vitro ADME; details: rat plasma
Protocol: Lys-CC30.2HCl (2.53 mg) was dissolved in 200 μl of water to obtain an aqueous solution concentration of 12.6 mg/ml. 4 μl of the Lys-CC30.2HCl solution was thoroughly mixed with 100 μl of rat plasma. This mixture was divided into 10 aliquots (10 μl) placed in 1.5 ml tubes. One tube was placed on ice and was used as the 0 time point. The other 9 samples were placed in an incubator at 37° C. At 5, 10, 30, 60, 120, and 240 minutes, a tube was taken out from incubation and placed on ice to stop or slow down the reaction. The samples were diluted with water (50-fold), mixed, and pelleted by centrifugation at 4° C. and 14,000 rpm for 5 min. The supernatant (˜200-300 μl) was used for HPLC-MS analysis. The % conversion was calculated by dividing the peak area of the parent drug by the peak area of the prodrug at time 0, and then multiplying by 100 (Table 10).
After 60 minutes of incubation, almost half (44.7%) of the Lys-CC30.2HCl prodrug converted to CC30 (Table 10).

[3] = In vivo conversion of prodrug Lys-CC30.2HCl to parent drug CC30 in a rat after intravenous administration (plasma, HPLC-MS); parameters: species or system Sprague-Dawley rat; details: for HPLC-MS Peak Area of Prodrug, Lys-CC30•2HCl in the rat: rat plasma, Lys-CC30.2HCl 2 mg/kg intravenous
Protocol: A Male Sprague-Dawley rat weighing 200-220 g was used to study the pharmacokinetics of the prodrug Lys-CC30.2HCl. Food was prohibited for 12 hours before the experiment, but water was freely available. Blood samples (0.2 ml) were collected through orbital venous plexus blood into heparinized 1.5 ml polyethene tubes at 0, 2, 5, 10, 15, 20, 30, 45 and 60 minute time points after the intravenous administration of Lys-CC30.2HCl (2 mg/kg). The samples were immediately centrifuged at 3000 g for 10 minutes. The plasma obtained (100 μl) was stored at −20° C. until analyzed. Plasma Lys-CC30.2HCl and parent drug CC30 concentrations in the collected blood samples were analyzed by HPLC-MS.
The parent drug was detected in the rat for at least 60 minutes, whereas the prodrug was no longer detected after 20 minutes (Table 11)(FIG. 10B).

[4] = Cyclization in simulated gastric fluid (SGF), acidic condition; format: physicochemical; details: SGF pH=1.3 with pepsin, 37° C., 4 hours
Protocol: Simulated gastric fluid (SGF) was prepared by thoroughly mixing diluted hydrochloric acid (16.4 ml), water (800 ml), and 10 g of pepsin together, and then bring the volume up to 1000 ml with water (pH=1.3). Diluted hydrochloric acid was prepared by mixing 234 ml of concentrated hydrochloric acid with water to a final volume of 1000 ml. Lys-CC30.2HCl (2.53 mg) or CC30 were separately dissolved in 200 μl of water to obtain an aqueous solution concentration of 12.6 mg/ml. 4 μl of the Lys-CC30.2HCl solution and the CC30 solution were thoroughly mixed with 1 ml of SGF in separate tubes. The mixtures were placed in an incubator at 37° C. for 4 hours. The samples were diluted with water 50-fold, mixed, and pelleted by centrifugation at 4° C. and 14,000 rpm for 5 min. The supernatants (˜200-300 μl) were used for HPLC-MS analysis.

Cl.Cl.NCCCC[C@H](N)C(=O)Nc1ccccc1NC(=O)CCCCCC(=O)Nc1cccc(Br)c1 [Lys-CC30•2HCl]
Solubility in Water [1]: 750 mg/mL | % Conversion of prodrug to CC30 ([2]; 37° C., 5 min): 14.2% | HPLC-MS Peak Area of Prodrug, Lys-CC30•2HCl ([2]; 37° C., 5 min): 5900784 | % Conversion of prodrug to CC30 ([2]; 37° C., 10 min): 18.3% | HPLC-MS Peak Area of Prodrug, Lys-CC30•2HCl ([2]; 37° C., 10 min): 5623041 | % Conversion of prodrug to CC30 ([2]; 37° C., 30 min): 33.0% | HPLC-MS Peak Area of Prodrug, Lys-CC30•2HCl ([2]; 37° C., 30 min): 5199304 | % Conversion of prodrug to CC30 ([2]; 37° C., 60 min): 44.7% | HPLC-MS Peak Area of Prodrug, Lys-CC30•2HCl ([2]; 37° C., 60 min): 3678701 | % Conversion of prodrug to CC30 ([2]; 37° C., 60 min, listed as Lys-CC30.2HCl): 44.7% | % Conversion of prodrug to CC30 ([2]; 37° C., 120 min): 69.2% | HPLC-MS Peak Area of Prodrug, Lys-CC30•2HCl ([2]; 37° C., 120 min): 921181 | % Conversion of prodrug to CC30 ([2]; 37° C., 240 min): 71.8% | HPLC-MS Peak Area of Prodrug, Lys-CC30•2HCl ([2]; 37° C., 240 min): 498331 | HPLC-MS Peak Area of Prodrug, Lys-CC30•2HCl ([2]; 37° C., time 0 min (on ice)): 6182672 | % Conversion of prodrug to CC30 ([2]; time 0 min, parent peak area / prodrug peak area at time 0 x 100): 10.0% | Time after which the prodrug was no longer detected in the rat ([3]; after Lys-CC30.2HCl 2 mg/kg intravenous): 20 min | Conversion in the rat to the parent drug CC30 (in words) ([3]; after injection of Lys-CC30.2HCl 2 mg/kg intravenous, time zero): immediately started converting | HPLC-MS Peak Area of Prodrug, Lys-CC30•2HCl in the rat ([3]; 0 min): 5199661 | HPLC-MS Peak Area of Prodrug, Lys-CC30•2HCl in the rat ([3]; 2 min): 2388965 | HPLC-MS Peak Area of Prodrug, Lys-CC30•2HCl in the rat ([3]; 5 min): 838012 | HPLC-MS Peak Area of Prodrug, Lys-CC30•2HCl in the rat ([3]; 10 min): 173555 | HPLC-MS Peak Area of Prodrug, Lys-CC30•2HCl in the rat ([3]; 15 min): 40200 | HPLC-MS Peak Area of Prodrug, Lys-CC30•2HCl in the rat ([3]; 20 min): 8674 | Formation of cyclized product (in words) [4]: No similarly cyclized product was formed
